# Source: patent US11566022B2, “3-(5-methoxy-1-oxoisoindolin-2-yl)piperidine-2,6-dione derivatives and uses thereof” (NOVARTIS AG, priority 2019, dated 2023)
# Biological target: HiBit-WIZ fusion protein (Homo sapiens, UniProt O95785+Q96SW2)
# Assay: Quantification of WIZ protein levels in HiBit tag fusion protein assay (WIZ HiBit assay in 293T cells)
# Type: cell-based
# Parameters: Dmax: dose or concentration left out as unconfirmed
# Conditions: for Dmax / remaining activity at up to 25 µM: HEK-293T; for Dmax: read-out: % degradation of WIZ (100-Amax); for remaining activity at up to 25 µM: read-out: WIZ Amax; for DC50: WIZ HiBit assay in 293T cells, 10-point, 5-fold dose response, highest concentration 25 μM, about 18 hours, read-out: WIZ AC50
# [1] = DMSO-normalized, curve-fitted percentage of WIZ-HiBit remaining at 25 uM, 293T cells
# Chain of HiBit-WIZ fusion protein (O95785 whole entry, the tested form may be a part): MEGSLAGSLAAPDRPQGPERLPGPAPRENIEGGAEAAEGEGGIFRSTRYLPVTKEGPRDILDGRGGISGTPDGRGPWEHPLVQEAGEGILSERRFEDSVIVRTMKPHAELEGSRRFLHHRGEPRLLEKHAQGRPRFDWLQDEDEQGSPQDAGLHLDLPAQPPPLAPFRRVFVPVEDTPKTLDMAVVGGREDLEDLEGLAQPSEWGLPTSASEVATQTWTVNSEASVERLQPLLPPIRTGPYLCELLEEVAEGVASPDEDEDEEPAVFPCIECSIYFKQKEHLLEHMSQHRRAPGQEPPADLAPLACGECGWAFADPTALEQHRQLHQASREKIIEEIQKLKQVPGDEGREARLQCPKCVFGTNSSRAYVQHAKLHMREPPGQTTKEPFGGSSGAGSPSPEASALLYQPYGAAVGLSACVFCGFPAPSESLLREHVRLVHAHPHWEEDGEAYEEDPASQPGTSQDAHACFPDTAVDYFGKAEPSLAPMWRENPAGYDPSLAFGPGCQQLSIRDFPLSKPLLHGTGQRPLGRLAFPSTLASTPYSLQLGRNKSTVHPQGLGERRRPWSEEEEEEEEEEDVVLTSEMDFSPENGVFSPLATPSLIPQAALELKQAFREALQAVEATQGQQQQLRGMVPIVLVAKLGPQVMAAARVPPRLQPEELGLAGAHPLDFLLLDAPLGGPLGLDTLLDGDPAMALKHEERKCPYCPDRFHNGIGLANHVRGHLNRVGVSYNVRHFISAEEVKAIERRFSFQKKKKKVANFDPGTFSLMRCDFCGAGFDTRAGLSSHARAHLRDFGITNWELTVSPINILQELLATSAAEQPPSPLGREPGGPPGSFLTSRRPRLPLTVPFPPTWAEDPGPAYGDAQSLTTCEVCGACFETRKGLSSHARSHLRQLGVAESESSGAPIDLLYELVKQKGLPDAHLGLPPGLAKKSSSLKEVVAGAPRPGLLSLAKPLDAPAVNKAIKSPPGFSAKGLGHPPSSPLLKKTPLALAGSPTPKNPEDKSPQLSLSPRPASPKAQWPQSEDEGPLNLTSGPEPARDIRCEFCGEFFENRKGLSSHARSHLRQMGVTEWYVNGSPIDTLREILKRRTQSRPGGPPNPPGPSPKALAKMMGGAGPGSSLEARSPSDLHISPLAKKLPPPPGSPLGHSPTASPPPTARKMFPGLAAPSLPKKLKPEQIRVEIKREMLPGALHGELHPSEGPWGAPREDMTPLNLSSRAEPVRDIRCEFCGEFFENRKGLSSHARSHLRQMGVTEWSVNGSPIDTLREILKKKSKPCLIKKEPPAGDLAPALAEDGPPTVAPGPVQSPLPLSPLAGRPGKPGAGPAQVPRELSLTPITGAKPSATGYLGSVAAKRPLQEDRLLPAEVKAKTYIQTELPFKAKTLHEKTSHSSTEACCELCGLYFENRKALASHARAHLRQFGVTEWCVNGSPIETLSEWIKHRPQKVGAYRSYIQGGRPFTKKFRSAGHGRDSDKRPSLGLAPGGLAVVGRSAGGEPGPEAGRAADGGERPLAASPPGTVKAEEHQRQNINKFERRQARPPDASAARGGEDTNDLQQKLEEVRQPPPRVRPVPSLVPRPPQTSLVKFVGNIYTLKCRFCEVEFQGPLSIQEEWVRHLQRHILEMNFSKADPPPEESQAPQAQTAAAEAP
# Chain of HiBit-WIZ fusion protein (Q96SW2 whole entry, the tested form may be a part): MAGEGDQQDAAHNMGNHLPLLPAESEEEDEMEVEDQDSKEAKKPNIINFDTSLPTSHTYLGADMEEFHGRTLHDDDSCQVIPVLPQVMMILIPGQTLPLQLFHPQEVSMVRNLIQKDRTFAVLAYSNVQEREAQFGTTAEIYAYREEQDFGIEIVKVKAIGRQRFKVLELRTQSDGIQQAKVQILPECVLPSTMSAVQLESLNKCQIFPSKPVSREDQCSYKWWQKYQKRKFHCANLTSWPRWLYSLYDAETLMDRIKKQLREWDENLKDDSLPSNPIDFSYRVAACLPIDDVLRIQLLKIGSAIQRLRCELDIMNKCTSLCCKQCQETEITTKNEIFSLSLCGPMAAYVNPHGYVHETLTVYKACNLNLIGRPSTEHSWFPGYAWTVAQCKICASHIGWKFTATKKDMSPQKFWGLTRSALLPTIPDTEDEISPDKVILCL
# Chain of HiBit-WIZ fusion protein (Q16531 whole entry partner, the tested form may be a part): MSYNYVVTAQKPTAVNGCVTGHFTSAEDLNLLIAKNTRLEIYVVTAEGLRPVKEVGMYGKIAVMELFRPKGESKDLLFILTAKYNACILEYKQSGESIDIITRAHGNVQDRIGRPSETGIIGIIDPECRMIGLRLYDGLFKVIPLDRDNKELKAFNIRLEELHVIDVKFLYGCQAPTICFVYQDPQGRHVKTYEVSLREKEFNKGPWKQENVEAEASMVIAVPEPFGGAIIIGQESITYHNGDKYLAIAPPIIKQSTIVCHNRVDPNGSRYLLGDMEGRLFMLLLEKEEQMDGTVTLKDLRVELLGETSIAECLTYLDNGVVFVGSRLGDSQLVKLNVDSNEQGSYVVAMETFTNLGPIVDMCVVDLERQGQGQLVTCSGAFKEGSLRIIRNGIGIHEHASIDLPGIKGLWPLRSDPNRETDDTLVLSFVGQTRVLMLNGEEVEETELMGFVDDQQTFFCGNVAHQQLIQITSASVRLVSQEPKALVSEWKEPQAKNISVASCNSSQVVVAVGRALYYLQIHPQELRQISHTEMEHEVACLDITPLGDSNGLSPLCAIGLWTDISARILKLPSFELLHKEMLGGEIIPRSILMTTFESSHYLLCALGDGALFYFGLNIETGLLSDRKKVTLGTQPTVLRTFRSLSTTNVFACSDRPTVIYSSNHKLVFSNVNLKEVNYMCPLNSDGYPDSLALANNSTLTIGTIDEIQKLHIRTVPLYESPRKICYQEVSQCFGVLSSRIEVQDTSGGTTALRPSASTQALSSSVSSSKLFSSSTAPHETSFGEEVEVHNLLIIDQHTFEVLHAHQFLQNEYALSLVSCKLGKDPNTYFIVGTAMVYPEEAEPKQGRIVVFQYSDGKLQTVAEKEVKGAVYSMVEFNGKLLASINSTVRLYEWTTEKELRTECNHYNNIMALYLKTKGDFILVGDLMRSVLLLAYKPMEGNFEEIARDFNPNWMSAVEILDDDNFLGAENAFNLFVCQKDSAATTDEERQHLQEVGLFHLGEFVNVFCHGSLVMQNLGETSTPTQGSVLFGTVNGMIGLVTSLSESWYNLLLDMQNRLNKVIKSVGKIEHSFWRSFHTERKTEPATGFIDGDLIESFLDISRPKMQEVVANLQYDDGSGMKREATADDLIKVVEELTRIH
Compound,"Dmax (100 minus Amax, 293T cells) [%]",remaining activity at up to 25 µM [1] [%],DC50 [nM],"% degradation of WIZ (100-Amax) (100 minus Amax, at 25 uM, 293T cells) [%]",WIZ Amax [1] [%]
CCc1cc(C(=O)N2CCCC[C@H]2COc2ccc3c(c2)CN(C2CCC(=O)NC2=O)C3=O)on1 (stereo partly drawn) [Compound I-72ek],21,79,> 25000,–,–
O=C1CCC(N2Cc3cc(OC[C@@H]4CCCCN4Cc4ccc(N5CCCC5)nc4)ccc3C2=O)C(=O)N1 (stereo partly drawn) [Compound I-50ak],81.3,18.7,347,–,–
"O=C1CCC(N2Cc3cc(OC[C@H]4CCCCN4CCOCc4ccccc4)ccc3C2=O)C(=O)N1 (stereo partly drawn) [Compound I-183, 3-(5-(((R)-1-(2-(benzyloxy)ethyl)piperidin-2-yl)methoxy)-1-oxoisoindolin-2-yl)piperidine-2,6-dione]",86.1,13.9,4,–,–
O=C1CCC(N2Cc3cc(OC[C@@H]4CCCCN4C(=O)c4ccnnc4)ccc3C2=O)C(=O)N1 (stereo partly drawn) [Compound I-72kc],9.4,90.6,> 25000,–,–
Cc1nc(C(F)(F)F)ccc1C(=O)N1CCCC[C@H]1COc1ccc2c(c1)CN(C1CCC(=O)NC1=O)C2=O (stereo partly drawn) [Compound I-72n],23.4,76.6,> 25000,–,–
"O=C1CCC(N2Cc3cc(OC[C@@H]4CC(F)(F)CN4)ccc3C2=O)C(=O)N1 (stereo partly drawn) [Compound I-84, 3-(5-(((S)-4,4-difluoropyrrolidin-2-yl)methoxy)-1-oxoisoindolin-2-yl)piperidine-2,6-dione]",21.2,78.8,> 25000,–,–
O=C1CCC(N2Cc3cc(OC[C@@H]4CCCCN4Cc4ccc(-n5nccn5)cc4)ccc3C2=O)C(=O)N1 (stereo partly drawn) [Compound I-50ai],77.8,22.2,591,–,–
CCOC(=O)c1n[nH]cc1CN1CCCC[C@@H]1COc1ccc2c(c1)CN(C1CCC(=O)NC1=O)C2=O (stereo partly drawn) [Compound I-50ch],59.1,40.9,9240,–,–
Cn1nc(CN2CCCC[C@H]2COc2ccc3c(c2)CN(C2CCC(=O)NC2=O)C3=O)cc1-c1ccccc1 (stereo partly drawn) [Compound I-50bc],93.4,6.6,58,–,–
"O=C1CCC(N2Cc3cc(OC[C@H]4CCCCN4Cc4ccccc4N4CCN(CC5CCOCC5)CC4)ccc3C2=O)C(=O)N1 (stereo partly drawn) [Compound I-108, 3-(1-oxo-5-(((R)-1-(2-(4-((tetrahydro-2H-pyran-4-yl)methyl)piperazin-1-yl)benzyl)piperidin-2-yl)methoxy)isoindolin-2-yl)piperidine-2,6-dione]",98.1,1.93,25,–,–
"CO[C@H]1C[C@H](CN2CCCC[C@@H]2COc2ccc3c(c2)CN(C2CCC(=O)NC2=O)C3=O)C1 (stereo partly drawn) [Compound I-97, 3-(5-(((R)-1-(((1r,3R)-3-methoxycyclobutyl)methyl)piperidin-2-yl)methoxy)-1-oxoisoindolin-2-yl)piperidine-2,6-dione]",91.8,8.17,140,–,–
CC(C)c1cc(C(=O)N2CCCC[C@H]2COc2ccc3c(c2)CN(C2CCC(=O)NC2=O)C3=O)no1 (stereo partly drawn) [Compound I-72cf],35,65,> 25000,–,–
"CCN1C2CCC(C2)C1COc1ccc2c(c1)CN(C1CCC(=O)NC1=O)C2=O (single isomer, unassigned) [I-255 (Isomer 2), 3-(5-((endo-2-ethyl-2-azabicyclo[2.2.1]heptan-3-yl)methoxy)-1-oxoisoindolin-2-yl)piperidine-2,6-dione]",–,–,98,28.8,71.2
O=C1CCC(N2Cc3cc(OC[C@@H]4CCCCN4Cc4cccc(Cn5cccn5)c4)ccc3C2=O)C(=O)N1 (stereo partly drawn) [Compound I-50bz],85.2,14.8,172,–,–
C[C@H](CC(=O)N1CCCC[C@H]1COc1ccc2c(c1)CN(C1CCC(=O)NC1=O)C2=O)c1ccccc1 (stereo partly drawn) [Compound I-72gu],0.2,99.8,> 25000,–,–
Cc1ccnc(-c2cc(C(=O)N3CCCC[C@H]3COc3ccc4c(c3)CN(C3CCC(=O)NC3=O)C4=O)ccn2)c1 (stereo partly drawn) [Compound I-72fa],5.1,94.9,> 25000,–,–
O=C1CCC(N2Cc3cc(OC[C@@H]4CCCCN4CC4CCN(Cc5ccccc5)CC4)ccc3C2=O)C(=O)N1 (stereo partly drawn) [Compound I-50aj],99,1,16,–,–
O=C1CCC(N2Cc3cc(OC[C@@H]4CCCCN4Cc4cncnc4)ccc3C2=O)C(=O)N1 (stereo partly drawn) [Compound I-50cq],7.3,92.7,> 25000,–,–
CC(C)c1cc(C(=O)N2CCCC[C@H]2COc2ccc3c(c2)CN(C2CCC(=O)NC2=O)C3=O)n(C)n1 (stereo partly drawn) [Compound I-72gd],80.1,19.9,919,–,–
O=C1CCC(N2Cc3cc(OC[C@H]4CCCCN4Cc4cncnc4)ccc3C2=O)C(=O)N1 (stereo partly drawn) [Compound I-50ce],43.9,56.1,> 25000,–,–
Cc1ncc(CN2CCCC[C@@H]2COc2ccc3c(c2)CN(C2CCC(=O)NC2=O)C3=O)[nH]1 (stereo partly drawn) [Compound I-50bp],65.9,34.1,7000,–,–
O=C1CCC(N2Cc3cc(OC[C@H]4CCCCN4Cc4ccc(OCCN5CCOCC5)cc4)ccc3C2=O)C(=O)N1 (stereo partly drawn) [Compound I-50cg],92.7,7.3,43,–,–
COc1cc(CN2CCCC[C@H]2COc2ccc3c(c2)CN(C2CCC(=O)NC2=O)C3=O)ccc1C (stereo partly drawn) [Compound I-50s],84.3,15.7,3800,–,–
CCOC(=O)c1cccc2[nH]nc(CN3CCCC[C@H]3COc3ccc4c(c3)CN(C3CCC(=O)NC3=O)C4=O)c12 (stereo partly drawn) [Compound I-50au],24.2,75.8,> 25000,–,–
CCN(CC)c1ccc(CN2CCCC[C@H]2COc2ccc3c(c2)CN(C2CCC(=O)NC2=O)C3=O)cn1 (stereo partly drawn) [Compound I-50as],84.3,15.7,327,–,–
CCOC(=O)c1cccc2[nH]nc(CN3CCCC[C@@H]3COc3ccc4c(c3)CN(C3CCC(=O)NC3=O)C4=O)c12 (stereo partly drawn) [Compound I-50er],89.8,10.2,920,–,–
COc1cc(C#N)ccc1CN1CCCC[C@H]1COc1ccc2c(c1)CN(C1CCC(=O)NC1=O)C2=O (stereo partly drawn) [Compound I-50r],34.4,65.6,> 25000,–,–
O=C1CCC(N2Cc3cc(OC[C@@H]4CCCCN4Cc4c(F)cccc4Cl)ccc3C2=O)C(=O)N1 (stereo partly drawn) [Compound I-50n],98.3,1.7,22,–,–
O=C1CCC(N2Cc3cc(OC[C@H]4CCCCN4Cc4cnn(Cc5ccccc5)c4)ccc3C2=O)C(=O)N1 (stereo partly drawn) [Compound I-50bv],99.9,0.1,1,–,–

# Other lines, results leading:
"Dmax (100 minus Amax, 293T cells) [%]",remaining activity at up to 25 µM [1] [%],DC50 [nM],"% degradation of WIZ (100-Amax) (100 minus Amax, at 25 uM, 293T cells) [%]",WIZ Amax [1] [%],Compound
66.9,33.1,6530,–,–,CCc1nc(C)c(CN2CCCC[C@@H]2COc2ccc3c(c2)CN(C2CCC(=O)NC2=O)C3=O)[nH]1 (stereo partly drawn) [Compound I-50dh]
62.2,37.8,25,–,–,COc1cc(CN2CCCC[C@@H]2COc2ccc3c(c2)CN(C2CCC(=O)NC2=O)C3=O)ccc1C#N (stereo partly drawn) [Compound I-192]
13,87,> 25000,–,–,O=C1CCC(N2Cc3cc(OC[C@@H]4CCCCN4C(=O)c4[nH]nc5c4CCCC5)ccc3C2=O)C(=O)N1 (stereo partly drawn) [Compound I-72ix]
52,48,19800,–,–,Cc1c(-c2ccccc2)n[nH]c1C(=O)N1CCCC[C@H]1COc1ccc2c(c1)CN(C1CCC(=O)NC1=O)C2=O (stereo partly drawn) [Compound I-72by]
11.3,88.7,> 25000,–,–,CC(C)Oc1ccccc1C(=O)N1CCCC[C@H]1COc1ccc2c(c1)CN(C1CCC(=O)NC1=O)C2=O (stereo partly drawn) [Compound I-72jy]
26.4,73.6,> 25000,–,–,COc1cc(C(=O)N2CCCC[C@H]2COc2ccc3c(c2)CN(C2CCC(=O)NC2=O)C3=O)c(F)cn1 (stereo partly drawn) [Compound I-72gn]
3,97,> 25000,–,–,COc1ccncc1C(=O)N1CCCC[C@H]1COc1ccc2c(c1)CN(C1CCC(=O)NC1=O)C2=O (stereo partly drawn) [Compound I-72bc]
15.2,84.8,> 25000,–,–,O=C1CCC(N2Cc3cc(OC[C@@H]4CCCCN4C(=O)[C@H]4CCN(Cc5ccccc5)C4)ccc3C2=O)C(=O)N1 (stereo partly drawn) [Compound I-72cy]
57.2,42.8,21100,–,–,O=C1CCC(N2Cc3cc(OC[C@@H]4CCCCN4Cc4n[nH]c5ccc(Oc6cccnc6)cc45)ccc3C2=O)C(=O)N1 (stereo partly drawn) [Compound I-50af]
44.4,55.6,> 25000,–,–,Cn1nnc2cc(CN3CCCC[C@H]3COc3ccc4c(c3)CN(C3CCC(=O)NC3=O)C4=O)ccc21 (stereo partly drawn) [Compound I-50ah]
96.8,3.2,89,–,–,Cc1noc(C)c1CN1CCCC[C@H]1COc1ccc2c(c1)CN(C1CCC(=O)NC1=O)C2=O (stereo partly drawn) [Compound I-50ao]
0,100,> 25000,–,–,N#CCCN1CCN(CC(=O)N2CCCC[C@H]2COc2ccc3c(c2)CN(C2CCC(=O)NC2=O)C3=O)CC1 (stereo partly drawn) [Compound I-72x]
50.8,49.2,> 25000,–,–,O=C1CCC(N2Cc3cc(OC[C@@H]4CCCCN4Cc4ccccc4OCCN4CCOCC4)ccc3C2=O)C(=O)N1 (stereo partly drawn) [Compound I-50ab]
